Measured values as given in patent publication US11447469B2, “Hetero ring-fused phenyl compounds for inhibiting TNIK and medical uses thereof” (Korea Research Institute of Chemical Technology, priority 2018, dated 2022).

Columns and labels:
SW480 cells = assay: Cell viability assay (CCK-8) using SW480 cell; format: cell-based; details: Homo sapiens, 48 h exposure
Experimental: (§1) 3. Efficacy of Inhibiting Cancer Cells Using Colon Cancer Cell Lines
(§2) The human colon cancer cell line SW480 (Catalog No. CCL-228) and SW620 (Catalog No. CCL-227) were obtained from the American Type Culture Collection (ATCC), and maintained in DMEM (Thermo Fisher Scientific Inc., Waltham, Mass., USA) supplemented with 10% fetal bovine serum (FBS) (Thermo Fisher Scientific Inc., Waltham, Mass.), 100 U/ml penicillin, and 100 µg/ml streptomycin (Gibco, Gaithersburg, Md.). Cells were grown at 37° C. in 5% CO2 for confluence.
(§3) Cell viability was measured using the Cell Counting Kit-8 (Dojindo Molecular Technologies). SW480 and SW620 cells (2.5×10^4 cells/well) were seeded in 96-well plates and incubated for 24 h. After incubation, the cells were exposed to serially diluted compounds (0.1, 0.3, 1, 3, 10 and 30 µM) in 100 μl phenol free DMEM medium containing 0.1% FBS. After 48 h, CCK-8 reagent was added at 10 μl per well and incubated for 1 h at 37° C. Optical density was measured at 450 nm using a microplate reader (Bio-Rad Laboratories, Hercules, Calif.). The IC50 values were calculated using GraphPad Prism software (GraphPad Software Inc., La Jolla, Calif., USA) to determine kit performance. Experiments were performed in triplicate.

TNIK [1] = biological target: T1, TNIK (Homo sapiens (Human), UniProt Q9UKE5); assay: In vitro TNIK kinase assay using ADP-Glo Kinase Assay system; format: biochemical; details: 100 μM ATP, MBP substrate; for IC50: 37° C. 30 min; for inhibition at 1 µM: compound at 1 μM
T1 sequence (Q9UKE5 whole entry): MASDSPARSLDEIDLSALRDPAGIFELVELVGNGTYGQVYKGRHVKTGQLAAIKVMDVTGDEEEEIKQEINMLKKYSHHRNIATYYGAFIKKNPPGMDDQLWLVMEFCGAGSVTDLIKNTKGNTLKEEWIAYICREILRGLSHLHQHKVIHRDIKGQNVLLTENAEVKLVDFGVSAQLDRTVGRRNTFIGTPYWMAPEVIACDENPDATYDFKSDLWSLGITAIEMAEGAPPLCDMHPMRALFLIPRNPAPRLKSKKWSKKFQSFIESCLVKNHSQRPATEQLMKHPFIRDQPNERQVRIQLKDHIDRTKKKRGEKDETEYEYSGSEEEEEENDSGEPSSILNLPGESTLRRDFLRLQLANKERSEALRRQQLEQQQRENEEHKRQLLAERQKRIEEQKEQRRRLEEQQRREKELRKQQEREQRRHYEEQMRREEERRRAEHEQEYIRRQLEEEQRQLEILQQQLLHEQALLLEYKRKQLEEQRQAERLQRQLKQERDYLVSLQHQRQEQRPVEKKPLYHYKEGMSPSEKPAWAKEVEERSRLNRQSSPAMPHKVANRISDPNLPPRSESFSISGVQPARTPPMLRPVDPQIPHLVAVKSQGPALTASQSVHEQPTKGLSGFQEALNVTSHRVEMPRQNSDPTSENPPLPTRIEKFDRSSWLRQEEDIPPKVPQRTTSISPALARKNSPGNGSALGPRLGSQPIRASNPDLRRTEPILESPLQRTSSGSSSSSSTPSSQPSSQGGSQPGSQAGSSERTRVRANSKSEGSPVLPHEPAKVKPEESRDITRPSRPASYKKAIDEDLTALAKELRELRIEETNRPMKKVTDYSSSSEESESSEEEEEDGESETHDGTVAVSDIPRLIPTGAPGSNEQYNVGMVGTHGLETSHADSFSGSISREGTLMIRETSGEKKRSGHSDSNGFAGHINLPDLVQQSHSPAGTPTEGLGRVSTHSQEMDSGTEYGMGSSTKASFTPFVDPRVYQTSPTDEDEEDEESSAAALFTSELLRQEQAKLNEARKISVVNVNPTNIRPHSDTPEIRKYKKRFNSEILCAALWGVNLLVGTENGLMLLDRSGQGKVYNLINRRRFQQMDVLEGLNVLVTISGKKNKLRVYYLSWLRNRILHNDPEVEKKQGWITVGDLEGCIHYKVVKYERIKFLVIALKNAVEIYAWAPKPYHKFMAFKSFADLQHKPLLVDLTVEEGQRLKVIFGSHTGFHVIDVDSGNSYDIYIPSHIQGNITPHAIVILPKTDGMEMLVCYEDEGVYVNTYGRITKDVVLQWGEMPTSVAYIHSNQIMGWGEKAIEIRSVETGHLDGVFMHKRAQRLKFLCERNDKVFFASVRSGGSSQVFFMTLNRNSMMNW
Experimental: 2. Efficacy of Inhibiting TNIK Activity, In Vitro TNIK Kinase Assay Using ADP-Glo™ Kinase Assay System
The inhibitory properties of compounds were evaluated with TNIK kinase enzyme system and luminescent ADP-Glo ? Kinase Assay from Promega Corporation according to the manufacturer's protocol. The tested compounds were incubated with TNIK kinases. Reactions were performed in 10 μl kinase buffer supplemented with reaction mixture containing 2 μl ATP, 2 μl MBP protein and 2 μl TNIK at 37° C. for 30 min. After kinase reaction, 5 μl reaction mixtures were transferred to 384 well assay plate (Greiner, solid white low-binding plates). Next, 5 μl of ADP-Glo Reagent was added to each well and incubated at 37° C. for 30 min. After 45 min, 10 μl Kinase Detection Reagent was added to each well and luminescence signal was detected with the SpectraMax M5e Microplate Reader (Molecular Devices, Menlo Park, Calif.) after 30 min at 37° C. incubation. The IC50 values were calculated using GraphPad Prism software (GraphPad Software Inc., La Jolla, Calif., USA) to determine kit performance. To the cut-off assay, the inhibitory activity of the compounds against TNIK kinase was expressed as the percentage of the kinase inhibitory activity for an indicated concentration of inhibitor. The IC s of the compounds against TNIK kinase values were calculated a log-concentration-response curve fitted with a four-parameter logistic equation and expressed dose-response curve for % of inhibitory activity versus log of the compound concentration.

SW620 cells = assay: Cell viability assay (CCK-8) using SW620 cell; format: cell-based; details: Homo sapiens, SW-620, 48 h exposure
Experimental: as §1, §2, §3

TNIK [2] = biological target: T1, TNIK; assay: In vitro TNIK kinase assay using qPCR (competition binding with liganded affinity beads); details: compound at 1 μM; kinase in eluate measured by qPCR
Experimental: 1. Efficacy of Inhibiting TNIK Activity, In Vitro TNIK Kinase Assay Using qPCR
For most assays, kinase-tagged T7 phage strains were grown in parallel in 24-well blocks in an E. coli host derived from the BL21 strain. E. coli were grown to log-phase and infected with T7 phage from a frozen stock (multiplicity of infection=0.4) and incubated with shaking at 32° C. until (90-150 minutes). The lysates were centrifuged (6,000×g) and filtered (0.2 μm) to remove cell debris. The remaining kinases were produced in HEK-293 cells and subsequently tagged with DNA for qPCR detection. Streptavidin-coated magnetic beads were treated with biotinylated small molecule ligands for 30 minutes at room temperature to generate affinity resins for kinase assays. The liganded beads were blocked with excess biotin and washed with blocking buffer (SeaBlock (Pierce), 1% BSA, 0.05% Tween 20, 1 mM DTT) to remove unbound ligand and to reduce non-specific phage binding. Binding reactions were assembled by combining kinases, liganded affinity beads, and test compounds in 1× binding buffer (20% SeaBlock, 0.17×PBS, 0.05% Tween 20, 6 mM DTT). Test compounds were prepared as 40× stocks in 100% DMSO and directly diluted into the assay. All reactions were performed in polypropylene 384-well plates in a final volume of 0.04 ml.
The assay plates were incubated at room temperature with shaking for 1 hour and the affinity beads were washed with wash buffer (1×PBS, 0.05% Tween 20). The beads were then re-suspended in elution buffer (1×PBS, 0.05% Tween 20, 0.5 μM non-biotinylated affinity ligand) and incubated at room temperature with shaking for 30 minutes. The kinase concentration in the eluates was measured by qPCR.

Row | SMILES | IC50 (SW480 cells) [µM] | IC50 (TNIK [1]) [nM] | inhibition at 1 µM (TNIK [1]) [%] | IC50 (SW620 cells) [µM] | activity at 1 µM (TNIK [2]) [%]
1 | c1cnn(-c2ccc(-c3cc(Nc4ccc5[nH]ncc5c4)n[nH]3)cc2)c1 [Compound 10, N-(5-(4-(1H-pyrazol-1-yl)phenyl)-1H-pyrazol-3-yl)-1H-indazol-5-amine] | – | 55 | 99 | – | –
2 | O=C1COc2cc(Nc3cc(-c4ccc(-n5cccn5)cc4)[nH]n3)ccc2N1 [Compound 13, 7-((5-(4-(1H-pyrazol-1-yl)phenyl)-1H-pyrazol-3-yl)amino)-2H-benzo[b][1,4]oxazin-3(4H)-one] | – | 7 | 90 | – | –
3 | Oc1ccc(-c2cc(Nc3ccc4[nH]ncc4c3)n[nH]2)cc1F [Compound 12, 4-(3-((1H-indazol-5-yl)amino)-1H-pyrazol-5-yl)-2-fluorophenol] | – | 45 | 93 | 13 | –
4 | O=C1CCc2cc(Nc3cc(-c4ccc(-n5ccnc5)cc4)[nH]n3)ccc2N1 [Compound 9, 6-((5-(4-(1H-imidazol-1-yl)phenyl)-1H-pyrazol-3-yl)amino)-3,4-dihydroquinolin-2(1H)-one] | – | 1 | 98 | – | –
5 | O=C1CCc2cc(Nc3cc(-c4ccc(O)cc4)[nH]n3)ccc2N1 [Compound 6, 6-((5-(4-hydroxyphenyl)-1H-pyrazol-3-yl)amino)-3,4-dihydroquinolin-2(1H)-one] | – | 62 | 96 | – | –
6 | O=C1Cc2cc(Nc3cc(-c4ccc(O)c(F)c4)[nH]n3)ccc2N1 [Compound 8, 5-((5-(3-fluoro-4-hydroxyphenyl)-1H-pyrazol-3-yl)amino)indolin-2-one] | – | 1 | 88 | – | –
7 | O=C1CCc2cc(Nc3cc(-c4ccc(-n5cccn5)cc4)[nH]n3)ccc2N1 [Compound 7, 6-((5-(4-(1H-pyrazol-1-yl)phenyl)-1H-pyrazol-3-yl)amino)-3,4-dihydroquinolin-2(1H)-one] | – | 1 | – | – | –

Results, then the compound that gave them:

Row | IC50 (SW480 cells) [µM] | IC50 (TNIK [1]) [nM] | inhibition at 1 µM (TNIK [1]) [%] | IC50 (SW620 cells) [µM] | activity at 1 µM (TNIK [2]) [%] | SMILES
8 | 21 | 96 | 99 | 3.4 | – | Cc1nc2cc(Nc3cc(-c4ccc(-n5cccn5)cc4)[nH]n3)ccc2[nH]1 [Compound 18, N-(5-(4-(1H-pyrazol-1-yl)phenyl)-1H-pyrazol-3-yl)-2-methyl-1H-benzo[d]imidazol-5-amine]
9 | – | – | 97 | – | – | O=C1COc2cc(Nc3cc(-c4ccc(O)cc4)[nH]n3)ccc2N1 [Compound 14, 7-((5-(4-hydroxyphenyl)-1H-pyrazol-3-yl)amino)-2H-benzo[b][1,4]oxazin-3(4H)-one]
10 | 4.5 | 94 | 99 | 1.2 | 21 | COc1ccc(-c2cc(Nc3ccc4[nH]ncc4c3)n[nH]2)cc1 [Compound 2, N-(5-(4-methoxyphenyl)-1H-pyrazol-3-yl)-1H-indazol-5-amine]
11 | – | 29 | 94 | – | – | Oc1ccc(-c2cc(Nc3ccc4[nH]ncc4c3)n[nH]2)cc1 [Compound 11, 4-(3-((1H-indazol-5-yl)amino)-1H-pyrazol-5-yl)phenol]
12 | – | – | 79 | – | 7 | COc1ccc(-c2cc(Nc3ccc4[nH]c(=O)[nH]c4c3)n[nH]2)cc1 [Compound 3, 5-((5-(4-methoxyphenyl)-1H-pyrazol-3-yl)amino)-1,3-dihydro-2H-benzo[d]imidazol-2-one]
13 | – | – | – | – | 16 | COc1ccc(-c2cc(Nc3ccc4[nH]ccc4c3)n[nH]2)cc1 [Compound 1, N-(5-(4-methoxyphenyl)-1H-pyrazol-3-yl)-1H-indol-5-amine]
14 | – | – | – | – | 8 | COc1ccc(-c2cc(Nc3ccc4cn[nH]c4c3)n[nH]2)cc1 [Compound 4, N-(5-(4-methoxyphenyl)-1H-pyrazol-3-yl)-1H-indazol-6-amine]
